Results as given in ChEMBL document CHEMBL5723586, “Data for DCP probe BI-1915” (2024).
Activity calls are given as the source filed them. The calls are words filed in the database; no cut-off is given here.

How the values were obtained:
[1] = target: Cannabinoid receptor 2 (Homo sapiens) (UniProt P34972); test: Activity against CB2/PERIPH/H in the Eurofins Cerep SafetyScreen44 (BI) by Radioactive Assay (Cerep_37); settings: Compound concentration 10.0 uM
[2] = target: D(2) dopamine receptor (Homo sapiens) (UniProt P14416); test: Agonist activity in the Eurofins Cerep SafetyScreen44 (BI) against D2SH_AGON by Scintillation counting (Cerep_1322); settings: Compound concentration 10.0 uM
[3] = target: MAO-A (amine oxidase [flavin-containing] A) (Homo sapiens, UniProt P21397); test: Agonist activity in the Eurofins Cerep SafetyScreen44 (BI) against MAO-A_ANTAG by Scintillation counting (Cerep_443); set-up: scale not given: the % may be the effect or the level left; settings: rat; compound concentration 10 uM; target entry is the homologue from another species; read-out: % Ctrl
hERG (KCNH2) = hERG (KCNH2) (Homo sapiens, UniProt Q12809); test: Inhibitor of HERG_DOFETILIDE in the Eurofins Cerep SafetyScreen44 (BI) by Scintillation counting (Cerep_4094); set-up: scale not given: the % may be the effect or the level left; settings: probe [3H] Dofetilide, compound concentration 10 uM, read-out: % Ctrl
[4] = target: Muscarinic acetylcholine receptor M2 (Homo sapiens) (UniProt P08172); test: M2 Eurofins-Cerep binding assay; set-up: ligand concentration 2 nM; settings: Compound concentration 10.0 uM
[5] = target: 5-hydroxytryptamine receptor 2A (Homo sapiens) (UniProt P28223); test: Agonist activity in the Eurofins Cerep SafetyScreen44 (BI) against 5HT2AH_AGON by Scintillation counting (Cerep_471); settings: Compound concentration 10.0 uM
[6] = target: Beta-2 adrenergic receptor (Homo sapiens) (UniProt P07550); test: beta 2 Eurofins-Cerep binding assay; settings: Compound concentration 10.0 uM
[7] = target: Mu-type opioid receptor (Homo sapiens) (UniProt P35372); test: mu (MOP) Eurofins-Cerep binding assay; set-up: ligand concentration 0.5 nM; settings: Compound concentration 10.0 uM
[8] = target: Cholecystokinin receptor type A (Homo sapiens) (UniProt P32238); test: CCK1 (CCKA) Eurofins-Cerep binding assay; set-up: ligand concentration 0.08 nM; settings: Compound concentration 10.0 uM
[9] = target: Alpha-2A adrenergic receptor (Homo sapiens) (UniProt P08913); test: Inhibitor of ALPHA2A/HU in the Eurofins Cerep SafetyScreen44 (BI) by Radioactive Assay (Cerep_13); settings: Compound concentration 10.0 uM
[10] = target: L-type calcium channel (dihydropyridine site), Cav1.2 alpha-1C (Rattus norvegicus, UniProt P22002); test: Inhibitor of CA+/DHPSI/R in the Eurofins Cerep SafetyScreen44 (BI) by Radioactive Assay (Cerep_161); type: protein assay; set-up: scale not given: the % may be the effect or the level left; settings: rat brain, probe [3H](+)PN200-110, compound concentration 10 uM, read-out: % Ctrl
[11] = target: Muscarinic acetylcholine receptor M1 (Homo sapiens) (UniProt P11229); test: M1 Eurofins-Cerep binding assay; set-up: ligand concentration 2 nM; settings: Compound concentration 10.0 uM
[12] = target: 5-hydroxytryptamine receptor 1B (Homo sapiens) (UniProt P28222); test: 5-HT1B Eurofins-Cerep binding assay; set-up: ligand concentration 1 nM; settings: Compound concentration 10.0 uM
[13] = target: Endothelin-1 receptor (Homo sapiens) (UniProt P25101); test: ETA Eurofins-Cerep binding assay; set-up: ligand concentration 0.03 nM; settings: Compound concentration 10.0 uM
[14] = target: Sodium-dependent dopamine transporter (Homo sapiens) (UniProt Q01959); test: dopamine transporter Eurofins-Cerep binding assay; settings: Compound concentration 10.0 uM
Rattus norvegicus [15] = species: Rattus norvegicus; test: KV channel Eurofins-Cerep binding assay; set-up: ligand concentration 0.01 nM; settings: Compound concentration 10.0 uM
[16] = target: Tyrosine-protein kinase Lck (Homo sapiens) (UniProt P06239); test: Inhibitor of LCK_CE in the Eurofins Cerep SafetyScreen44 (BI) by lanthanide chelation excitation (Cerep_2906); settings: Compound concentration 10.0 uM
[17] = target: Alpha-1A adrenergic receptor (Homo sapiens) (UniProt P35348); test: Agonist activity in the Eurofins Cerep SafetyScreen44 (BI) against ALPHA1AH_ANTAG by Scintillation counting (Cerep_2338); settings: Compound concentration 10.0 uM
[18] = target: cGMP-inhibited 3',5'-cyclic phosphodiesterase 3A (Homo sapiens) (UniProt Q14432); test: Inhibitor of PDE3A in the Eurofins Cerep SafetyScreen44 (BI) by HTRF-homogeneous time resolved fluoresce (Cerep_4072); settings: Compound concentration 10.0 uM
[19] = target: Angiotensin-converting enzyme (Homo sapiens) (UniProt P12821); test: Activity against ACE(HU_AMTCH400) in the Eurofins Cerep SafetyScreen44 (BI) by Photometry (Cerep_3441); settings: Compound concentration 10.0 uM
Rattus norvegicus [20] = species: Rattus norvegicus; test: Activity against BZD/CENTR/R in the Eurofins Cerep SafetyScreen44 (BI) by Radioactive Assay (Cerep_28); type: protein-complex assay; settings: Compound concentration 10.0 uM
[21] = target: Vasopressin V1a receptor (Homo sapiens) (UniProt P37288); test: V1a Eurofins-Cerep binding assay; set-up: ligand concentration 0.3 nM; settings: Compound concentration 10.0 uM
[22] = target: Prostaglandin G/H synthase 1 (Homo sapiens) (UniProt P23219); test: Inhibitor of COX-1 in the Eurofins Cerep SafetyScreen44 (BI) by Fluorimetry (Cerep_4173); settings: Compound concentration 10.0 uM
[23] = target: 3',5'-cyclic-AMP phosphodiesterase 4D (Homo sapiens) (UniProt Q08499); test: Inhibitor of PDE4D2 in the Eurofins Cerep SafetyScreen44 (BI) by Scintillation counting (Cerep_4077); settings: Compound concentration 10.0 uM
[24] = target: 5-hydroxytryptamine receptor 1A (Homo sapiens) (UniProt P08908); test: 5-HT1A Eurofins-Cerep binding assay; set-up: ligand concentration 0.5 nM; settings: Compound concentration 10.0 uM
[25] = target: Histamine H1 receptor (Homo sapiens) (UniProt P35367); test: H1 Eurofins-Cerep binding assay; set-up: ligand concentration 1 nM; settings: Compound concentration 10.0 uM
[26] = target: Beta-1 adrenergic receptor (Homo sapiens) (UniProt P08588); test: beta 1 Eurofins-Cerep binding assay; set-up: ligand concentration 0.3 nM; settings: Compound concentration 10.0 uM
[27] = target: Sodium-dependent serotonin transporter (Homo sapiens) (UniProt P31645); test: 5-HT transporter Eurofins-Cerep binding assay; set-up: ligand concentration 2 nM; settings: Compound concentration 10.0 uM
[28] = target: 5-hydroxytryptamine receptor 3A (Homo sapiens) (UniProt P46098); test: 5-HT3 Eurofins-Cerep binding assay; set-up: ligand concentration 0.5 nM; settings: Compound concentration 10.0 uM
[29] = target: Androgen receptor (Homo sapiens) (UniProt P10275); settings: Compound concentration 10.0 uM
Description: Activity against ANDROGEN/H in the Eurofins Cerep SafetyScreen44 (BI) by Radioactive Assay (Cerep_933)

[30] = target: Histamine H2 receptor (Homo sapiens) (UniProt P25021); test: H2 Eurofins-Cerep binding assay; set-up: ligand concentration 0.075 nM; settings: Compound concentration 10.0 uM
[31] = target: 5-hydroxytryptamine receptor 2B (Homo sapiens) (UniProt P41595); test: 5-HT2B Eurofins-Cerep binding assay; settings: Compound concentration 10.0 uM
[32] = target: Glucocorticoid receptor (Homo sapiens) (UniProt P04150); test: GR Eurofins-Cerep binding assay; settings: Compound concentration 10.0 uM
[33] = target: Prostaglandin G/H synthase 2 (Homo sapiens) (UniProt P35354); test: Inhibitor of COX-2 in the Eurofins Cerep SafetyScreen44 (BI) by Fluorimetry (Cerep_4186); settings: Compound concentration 10.0 uM
[34] = target: Kappa-type opioid receptor (Homo sapiens) (UniProt P41145); test: kappa (KOP) Eurofins-Cerep binding assay; settings: Compound concentration 10.0 uM
[35] = target: Adenosine receptor A2a (Homo sapiens) (UniProt P29274); test: A2A Eurofins-Cerep binding assay; set-up: ligand concentration 6 nM; settings: Compound concentration 10.0 uM
[36] = target: Cannabinoid receptor 1 (Homo sapiens) (UniProt P21554); test: CB1 Eurofins-Cerep binding assay; settings: Compound concentration 10.0 uM
[37] = target: Delta-type opioid receptor (Homo sapiens) (UniProt P41143); test: delta (DOP) Eurofins-Cerep binding assay; set-up: ligand concentration 0.5 nM; settings: Compound concentration 10.0 uM
[38] = target: Sodium-dependent noradrenaline transporter (Homo sapiens) (UniProt P23975); test: norepinephrine transporter Eurofins-Cerep binding assay; set-up: ligand concentration 1 nM; settings: Compound concentration 10.0 uM
[39] = target: Glutamate NMDA receptor (Rattus norvegicus) (UniProt P35439+Q00959+Q00960+Q00961+Q62645+Q8VHN2+Q9R1M7); test: Inhibitor of NMDA/R in the Eurofins Cerep SafetyScreen44 (BI) by Radioactive Assay (Cerep_66); type: protein-complex assay; settings: Compound concentration 10.0 uM
[40] = target: D(1A) dopamine receptor (Homo sapiens) (UniProt P21728); test: D1 Eurofins-Cerep binding assay; set-up: ligand concentration 0.3 nM; settings: Compound concentration 10.0 uM
[41] = target: Muscarinic acetylcholine receptor M3 (Homo sapiens) (UniProt P20309); test: M3 Eurofins-Cerep binding assay; set-up: ligand concentration 0.2 nM; settings: Compound concentration 10.0 uM
Homo sapiens = species: Homo sapiens; test: Agonist activity in the Eurofins Cerep SafetyScreen44 (BI) against N_NEURO_A4B2 by Radioligand Binding (Cerep_3029); type: protein-complex assay; settings: Compound concentration 10.0 uM
Cathepsin B = Cathepsin B (Homo sapiens, UniProt P07858); test: Luminescent based enzymatic assay (CTSB)
Procathepsin L = Procathepsin L (Homo sapiens, UniProt P07711); test: Luminescent based enzymatic assay (CTSL)
Cathepsin S = Cathepsin S (Homo sapiens, UniProt P25774); test: Scintillation proximity assay (CTSS)
Cathepsin K = Cathepsin K (Homo sapiens, UniProt P43235); test: Luminescent based enzymatic assay (CTSK)

MAO-A (amine oxidase [flavin-containing] A), sequence (P21397 whole entry): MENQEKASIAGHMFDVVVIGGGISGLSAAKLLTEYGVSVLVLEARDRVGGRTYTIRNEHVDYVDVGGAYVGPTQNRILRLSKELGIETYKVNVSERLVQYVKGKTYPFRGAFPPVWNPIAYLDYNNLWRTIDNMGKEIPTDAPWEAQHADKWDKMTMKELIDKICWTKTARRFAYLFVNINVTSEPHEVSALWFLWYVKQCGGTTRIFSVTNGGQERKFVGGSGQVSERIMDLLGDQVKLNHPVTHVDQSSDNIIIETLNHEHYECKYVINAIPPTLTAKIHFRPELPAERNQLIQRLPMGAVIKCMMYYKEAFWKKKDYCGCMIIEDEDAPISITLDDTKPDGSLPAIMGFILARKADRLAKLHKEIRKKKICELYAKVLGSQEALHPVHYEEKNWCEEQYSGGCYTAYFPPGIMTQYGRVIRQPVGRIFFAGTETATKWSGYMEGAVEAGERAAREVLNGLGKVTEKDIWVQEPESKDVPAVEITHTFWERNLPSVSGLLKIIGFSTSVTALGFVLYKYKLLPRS
5-hydroxytryptamine receptor 1A (Homo sapiens), sequence (P08908 whole entry): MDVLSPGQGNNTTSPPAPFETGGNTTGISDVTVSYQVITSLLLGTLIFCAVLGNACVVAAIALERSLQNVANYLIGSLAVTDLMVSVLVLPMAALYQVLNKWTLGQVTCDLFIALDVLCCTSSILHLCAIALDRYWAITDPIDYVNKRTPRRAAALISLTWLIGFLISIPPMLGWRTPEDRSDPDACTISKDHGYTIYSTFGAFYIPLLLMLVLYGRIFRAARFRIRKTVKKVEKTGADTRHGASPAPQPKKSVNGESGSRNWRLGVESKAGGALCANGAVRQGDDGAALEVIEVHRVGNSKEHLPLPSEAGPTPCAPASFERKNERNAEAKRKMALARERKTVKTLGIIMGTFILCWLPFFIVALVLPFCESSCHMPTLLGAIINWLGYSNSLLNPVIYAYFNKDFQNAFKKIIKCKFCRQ
Prostaglandin G/H synthase 1 (Homo sapiens), sequence (P23219 whole entry): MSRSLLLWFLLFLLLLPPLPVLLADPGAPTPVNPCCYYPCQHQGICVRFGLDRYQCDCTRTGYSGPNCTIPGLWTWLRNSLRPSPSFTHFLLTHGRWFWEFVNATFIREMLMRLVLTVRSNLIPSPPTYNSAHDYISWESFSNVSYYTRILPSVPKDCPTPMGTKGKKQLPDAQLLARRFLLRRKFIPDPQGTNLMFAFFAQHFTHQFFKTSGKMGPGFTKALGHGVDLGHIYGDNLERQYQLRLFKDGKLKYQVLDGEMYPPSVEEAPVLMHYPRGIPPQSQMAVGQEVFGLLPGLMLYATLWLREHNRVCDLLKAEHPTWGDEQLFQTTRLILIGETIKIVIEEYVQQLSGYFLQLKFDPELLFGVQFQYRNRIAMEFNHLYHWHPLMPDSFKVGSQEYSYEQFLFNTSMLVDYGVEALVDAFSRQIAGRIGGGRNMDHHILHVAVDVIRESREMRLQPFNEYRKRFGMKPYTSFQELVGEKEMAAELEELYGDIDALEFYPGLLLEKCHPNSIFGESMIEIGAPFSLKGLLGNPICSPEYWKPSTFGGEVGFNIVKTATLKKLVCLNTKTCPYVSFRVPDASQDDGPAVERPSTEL
Vasopressin V1a receptor (Homo sapiens), sequence (P37288 whole entry, looked up): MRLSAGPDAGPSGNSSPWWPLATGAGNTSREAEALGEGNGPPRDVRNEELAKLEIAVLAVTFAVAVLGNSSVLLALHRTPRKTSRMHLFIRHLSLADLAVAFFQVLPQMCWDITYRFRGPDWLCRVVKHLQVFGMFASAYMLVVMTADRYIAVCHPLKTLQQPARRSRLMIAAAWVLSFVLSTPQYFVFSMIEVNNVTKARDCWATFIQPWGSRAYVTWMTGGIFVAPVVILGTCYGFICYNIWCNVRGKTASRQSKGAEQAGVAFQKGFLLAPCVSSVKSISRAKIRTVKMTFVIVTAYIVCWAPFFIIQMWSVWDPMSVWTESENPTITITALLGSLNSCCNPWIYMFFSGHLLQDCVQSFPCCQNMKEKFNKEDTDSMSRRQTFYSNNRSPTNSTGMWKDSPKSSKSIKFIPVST
5-hydroxytryptamine receptor 1B (Homo sapiens), sequence (P28222 whole entry): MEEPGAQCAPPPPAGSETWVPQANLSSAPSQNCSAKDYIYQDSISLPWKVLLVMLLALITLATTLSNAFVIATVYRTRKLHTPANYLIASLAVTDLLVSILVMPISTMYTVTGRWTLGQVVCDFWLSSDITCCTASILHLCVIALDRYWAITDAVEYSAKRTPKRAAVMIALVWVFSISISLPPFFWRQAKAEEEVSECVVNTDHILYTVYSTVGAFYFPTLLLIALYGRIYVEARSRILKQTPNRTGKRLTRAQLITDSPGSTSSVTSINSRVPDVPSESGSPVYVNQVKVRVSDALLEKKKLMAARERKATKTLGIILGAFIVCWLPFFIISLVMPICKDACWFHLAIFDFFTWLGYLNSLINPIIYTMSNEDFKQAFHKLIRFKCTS
Histamine H1 receptor (Homo sapiens), sequence (P35367 whole entry): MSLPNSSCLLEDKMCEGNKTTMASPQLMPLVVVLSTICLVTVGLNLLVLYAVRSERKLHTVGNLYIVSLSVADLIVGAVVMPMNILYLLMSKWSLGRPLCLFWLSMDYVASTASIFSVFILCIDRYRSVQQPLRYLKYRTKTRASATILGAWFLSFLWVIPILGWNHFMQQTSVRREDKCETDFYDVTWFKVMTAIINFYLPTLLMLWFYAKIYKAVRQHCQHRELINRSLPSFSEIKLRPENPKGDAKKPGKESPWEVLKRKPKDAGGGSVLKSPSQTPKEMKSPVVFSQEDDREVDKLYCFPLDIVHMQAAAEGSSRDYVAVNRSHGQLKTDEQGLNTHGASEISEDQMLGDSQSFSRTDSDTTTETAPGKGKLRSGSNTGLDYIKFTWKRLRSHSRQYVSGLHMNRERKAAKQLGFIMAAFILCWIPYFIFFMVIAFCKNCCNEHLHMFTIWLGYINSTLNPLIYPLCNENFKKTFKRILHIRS
D(1A) dopamine receptor (Homo sapiens), sequence (P21728 whole entry): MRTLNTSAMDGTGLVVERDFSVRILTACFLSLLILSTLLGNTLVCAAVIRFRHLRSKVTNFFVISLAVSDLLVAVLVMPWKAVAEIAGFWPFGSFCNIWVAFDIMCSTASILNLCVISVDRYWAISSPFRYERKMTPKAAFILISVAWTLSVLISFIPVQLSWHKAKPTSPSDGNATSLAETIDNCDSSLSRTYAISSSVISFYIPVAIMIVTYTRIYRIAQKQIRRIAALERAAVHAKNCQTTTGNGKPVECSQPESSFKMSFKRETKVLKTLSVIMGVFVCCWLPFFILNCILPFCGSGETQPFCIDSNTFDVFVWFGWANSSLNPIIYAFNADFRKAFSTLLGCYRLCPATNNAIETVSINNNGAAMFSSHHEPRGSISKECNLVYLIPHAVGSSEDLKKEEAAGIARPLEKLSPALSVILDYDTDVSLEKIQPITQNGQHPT
Glucocorticoid receptor (Homo sapiens), sequence (P04150 whole entry): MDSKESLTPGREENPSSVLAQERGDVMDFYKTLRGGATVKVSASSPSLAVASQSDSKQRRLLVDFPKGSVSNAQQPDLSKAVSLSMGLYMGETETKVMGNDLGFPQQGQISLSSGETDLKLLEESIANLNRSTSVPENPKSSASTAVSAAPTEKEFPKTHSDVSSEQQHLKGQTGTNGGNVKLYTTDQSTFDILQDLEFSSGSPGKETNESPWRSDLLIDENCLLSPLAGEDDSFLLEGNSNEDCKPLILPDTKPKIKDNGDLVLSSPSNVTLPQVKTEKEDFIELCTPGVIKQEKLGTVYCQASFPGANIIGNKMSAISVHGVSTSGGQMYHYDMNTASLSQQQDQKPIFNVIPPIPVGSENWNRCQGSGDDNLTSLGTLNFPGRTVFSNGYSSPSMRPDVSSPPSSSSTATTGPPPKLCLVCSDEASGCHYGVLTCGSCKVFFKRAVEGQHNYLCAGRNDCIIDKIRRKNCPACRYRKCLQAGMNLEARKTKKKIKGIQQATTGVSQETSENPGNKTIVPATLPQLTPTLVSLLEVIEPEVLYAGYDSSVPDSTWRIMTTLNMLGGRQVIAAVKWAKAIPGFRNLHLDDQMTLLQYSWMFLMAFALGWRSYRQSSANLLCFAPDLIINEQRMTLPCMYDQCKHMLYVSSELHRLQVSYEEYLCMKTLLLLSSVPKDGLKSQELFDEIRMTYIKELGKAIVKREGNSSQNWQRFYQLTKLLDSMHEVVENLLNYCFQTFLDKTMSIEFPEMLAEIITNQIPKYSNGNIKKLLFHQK
Delta-type opioid receptor (Homo sapiens), sequence (P41143 whole entry): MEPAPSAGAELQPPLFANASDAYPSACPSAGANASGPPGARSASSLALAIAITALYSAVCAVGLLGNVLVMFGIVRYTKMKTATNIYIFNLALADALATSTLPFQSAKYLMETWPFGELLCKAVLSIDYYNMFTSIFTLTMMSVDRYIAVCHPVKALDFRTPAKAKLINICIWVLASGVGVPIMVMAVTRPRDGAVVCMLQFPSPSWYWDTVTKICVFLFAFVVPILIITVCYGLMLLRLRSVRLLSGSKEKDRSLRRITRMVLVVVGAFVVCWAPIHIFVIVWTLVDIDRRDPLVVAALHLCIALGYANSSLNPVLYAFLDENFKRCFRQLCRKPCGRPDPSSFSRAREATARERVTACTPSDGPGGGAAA
5-hydroxytryptamine receptor 2B (Homo sapiens), sequence (P41595 whole entry): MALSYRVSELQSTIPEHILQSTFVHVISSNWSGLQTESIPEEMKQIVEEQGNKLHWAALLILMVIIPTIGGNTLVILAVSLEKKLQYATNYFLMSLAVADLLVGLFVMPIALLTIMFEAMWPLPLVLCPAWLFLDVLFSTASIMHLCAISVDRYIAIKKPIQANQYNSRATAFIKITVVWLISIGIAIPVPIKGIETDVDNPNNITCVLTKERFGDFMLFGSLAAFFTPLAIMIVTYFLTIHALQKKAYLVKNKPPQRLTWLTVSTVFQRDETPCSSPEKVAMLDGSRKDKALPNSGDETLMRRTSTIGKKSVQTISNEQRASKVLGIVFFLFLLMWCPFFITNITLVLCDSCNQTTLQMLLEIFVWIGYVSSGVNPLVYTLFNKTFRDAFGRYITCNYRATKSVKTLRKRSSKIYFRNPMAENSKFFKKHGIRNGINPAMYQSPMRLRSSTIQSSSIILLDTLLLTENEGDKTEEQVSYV

SMILES: CN1CCC(C#N)(NC(=O)[C@@H](NC(=O)N2CCOCC2)C(C)(C)C)CC1
- residual activity [1]: 109%
- residual activity [2]: 107%
- activity at 10 µM [3]: 105% (not active)
- activity at 10 µM (hERG (KCNH2)): 98% (not active)
- residual activity [4]: 125%
- residual activity [5]: 123%
- residual activity [6]: 92%
- residual activity [7]: 96%
- residual activity [8]: 96%
- residual activity [9]: 80%
- activity at 10 µM [10]: 115% (not active)
- residual activity [11]: 108%
- residual activity [12]: 61%
- residual activity [13]: 112%
- residual activity [14]: 105%
- residual activity (Rattus norvegicus [15]): 110%
- residual activity [16]: 99%
- residual activity [17]: 104%
- residual activity [18]: 88%
- residual activity [19]: 105%
- residual activity (Rattus norvegicus [20]): 111%
- residual activity [21]: 94%
- residual activity [22]: 108%
- residual activity [23]: 105%
- residual activity [24]: 97%
- residual activity [25]: 106%
- residual activity [26]: 97%
- residual activity [27]: 106%
- residual activity [28]: 97%
- residual activity [29]: 110%
- residual activity [30]: 92%
- residual activity [31]: 117%
- residual activity [32]: 105%
- residual activity [33]: 90%
- residual activity [34]: 96%
- residual activity [35]: 87%
- residual activity [36]: 112%
- residual activity [37]: 106%
- residual activity [38]: 120%
- residual activity [39]: 92%
- residual activity [40]: 105%
- residual activity [41]: 112%
- residual activity (Homo sapiens): 98%

SMILES: CCC(C)(C)CC[C@H](NC(=O)N1CCOCC1)C(=O)NC1(C#N)CCN(C)CC1
- residual activity [1]: 106%
- IC50 (Cathepsin B): > 10 µM (not active)
- residual activity [2]: 106%
- activity at 10 µM [3]: 108% (not active)
- activity at 10 µM (hERG (KCNH2)): 100% (not active)
- residual activity [4]: 106%
- residual activity [5]: 104%
- residual activity [6]: 103%
- residual activity [7]: 81%
- residual activity [8]: 88%
- residual activity [9]: 97%
- activity at 10 µM [10]: 106% (not active)
- IC50 (Procathepsin L): > 30 µM (not active)
- residual activity [11]: 105%
- residual activity [12]: 92.5%
- residual activity [13]: 106%
- residual activity [14]: 98.5%
- residual activity (Rattus norvegicus [15]): 109%
- Kd (Cathepsin S): 0.031 µM (active)
- residual activity [16]: 96.5%
- residual activity [17]: 110%
- residual activity [18]: 103%
- residual activity [19]: 98.5%
- residual activity (Rattus norvegicus [20]): 114%
- residual activity [21]: 92.5%
- residual activity [22]: 112%
- residual activity [23]: 100%
- residual activity [24]: 104%
- residual activity [25]: 101%
- residual activity [26]: 101%
- residual activity [27]: 106%
- residual activity [28]: 100%
- residual activity [29]: 107%
- residual activity [30]: 106%
- residual activity [31]: 118%
- residual activity [32]: 102%
- residual activity [33]: 104%
- residual activity [34]: 84.5%
- residual activity [35]: 102%
- residual activity [36]: 116%
- residual activity [37]: 92.5%
- IC50 (Cathepsin K): > 10 µM (not active)
- residual activity [38]: 103%
- residual activity [39]: 106%
- residual activity [40]: 94%
- residual activity [41]: 106%
- residual activity (Homo sapiens): 114%
